Reference: US9808419B2, “Medicinal treatment of dermal infectious disorders with norketotifen” (priority 2012, dated 2017)
Like-named read-outs stand apart in the source and are kept apart here. Marks after values point to notes of the source that are not given here.

Experiments:
mice = details: for Sedated animals: mice, 60 min before physostigmine
Procedure: Mice administered a sedating drug prior to the physostigmine injection are protected from the stress and survive. In the present study, test compounds were given orally 60 minutes prior to physostigmine injection. The number of surviving (sedated) mice was counted 30 minutes after injection of the physostigmine dose.

[1] = tested on: histamine-induced pruritus; experiment: Histamine-induced pruritus in mice, oral administration; format: in vivo
Procedure: Antipruritic effects were tested in vivo in CD-1 female mice aged 10-12 weeks. The hair was clipped over the rostral part of the back at the interscapular level of the mice one day before dosing. Before testing, the mice were placed in individual clear plastic cages for at least one hour for acclimation. After fasting for 1.5 hours, the animals were dosed orally with the test article, dissolved in a vehicle consisting of 1% methylcellulose/water, 10 mL/kg body-weight. Sixty minutes after oral dosing, an intradermal injection of histamine (300 nmol in 20 μl phosphate buffered saline (PBS), pH 7.4) was administered into the clipped area. Immediately after the histamine injection, the bouts of scratches were counted for 40 minutes. Scratching induced by the histamine vehicle PBS served as control.
Norketotifen was tested in escalating doses. In addition, a supramaximal dose of 100 mg/kg of norketotifen was tested. The reference compounds JNJ7777120, desloratadine and oclacitinib were dosed orally at 20 mg/kg. The vehicle for the reference compound JNJ7777120 was 20% hydroxypropyl-β-cyclodextrin in water. […]. The numbers of pruritic bouts for Norketotifen, DES and OCLA are expressed in percent of the same Vehicle (100% corresponds to 92 pruritic bouts). […] Scratches induced by the histamine-free vehicle PBS (not shown in Table 5) served as control (6±3 bouts of scratching; N=8)
This test used histamine to induce pruritus. […] The histamine inhibitors are “inverse agonists” at both receptor types.

[2] = Acute toxicity in rats, Up-and-Down Procedure; details: both sexes, Sprague-Dawley, in vivo, rat, hydrogen fumarate salts, read-out: Acute toxicity (estimated LD50)
Procedure: Acute toxicological studies were performed in rats (Sprague-Dawley; M and F; 200-250 grams). The animal-sparing Up-and-Down Procedure, recommended by FDA and OECD, was used. Both oral and intravenous toxicity tests were performed.
Both compounds were administered as hydrogen fumarate salts.

Staphylococcus aureus = experiment: Antimicrobial MIC test; format: cell-based; details: MRSA or non-resistant S. aureus; 36° C. and 24 hours
From the text: (§1) Several studies have been performed to evaluate possible antimicrobial activities of norketotifen. Shown here are the results from a standard microbiological test, where the results are expressed as MIC (Minimal Inhibitory Concentration) of the test article against selected exemplary dermal bacteria (such as for example Staphylococcus aureus) and dermal fungi (such as for example Malassezia sp) that are commonly found in human with dermal diseases. […] All the MIC-tests shown in Table 10 were performed in duplicates, using 10 concentrations of the test articles. […] The test culture tubes/plates were incubated in temperatures and durations appropriate for each microorganism (S. aureus: 36° C. and 24 hours; M. globosa: 30° C. and 24 hours).

Malassezia globosa = experiment: Antimicrobial MIC test; format: cell-based; details: 30° C. and 24 hours
From the text: as §1

[3] = Formation of norketotifen by hepatic demethylation of ketotifen; details: human patients, after an oral dose of one milligram ketotifen; calculated
[4] = tested on: histamine-induced pruritus; experiment: Histamine-induced pruritus in mice, topical cream; format: in vivo; details: single topical application of 1.0 percent cream
Procedure: Antipruritic effects were tested in vivo in CD-1 female mice aged 10-12 weeks, according to methods known in the art. The hair was clipped over the rostral part of the back at the interscapular level of the mice one day before dosing. Before testing, the mice were placed in individual clear plastic cages for at least one hour for acclimation. […] Lanolin was weighed and liquified by submerging the vessel containing lanolin in hot water. While the lanolin was liquid, it was rapidly nixed (by vortexing) with the 2.5% norketotifen solution in ethanol, resulting in a 1.0 percent solution. […] A cream containing 60% lanolin/40% ethanol served as control.

[5] = tested on: croton oil inflammatory response; experiment: Modified croton oil ear inflammation in mice, topical cream; format: in vivo; details: cream containing 1.0 percent (w/w)
Procedure: In order to investigate the effects of topical administration of the test compounds in dermal inflammation, a modified croton oil model was used. […] The cream was then removed and a solution of 1% croton oil in 20 μl acetone was applied to both ears. […] Cream was wiped from the ears and ears were removed and weighed. […] All results represent mean ear weights (±S.E.M.) from 8 ears.

histamine wheal response = experiment: Histamine-induced wheal (Evans blue) in rats, oral pretreatment; format: in vivo; details: rat; for Saline wheal area: histamine vehicle injection
Procedure: Male rats (150-200 g) were fasted overnight and twelve hours after dorsal depilation, the animals were orally pretreated with the test compound(s). Four dorsal test areas were marked with permanent ink, carefully avoiding the area closest to the spine. […] Two intradermal injections of the vehicle for the histamine solution were also performed. […] Twenty minutes were allowed for the wheal response to fully develop, whereupon the animals were euthanized and the dorsal skin with the intradermal wheals were deflected. The blue spotted areas were measured in square millimeters and the duplicate wheal areas were averaged. […] The inhibition was calculated in percent difference from said baseline values.

[6] = Solubility in non-aqueous topical formulation solvents; format: physicochemical
Procedure: The hydrophobic ointment was prepared by dissolving norketotifen in propylene glycol. […] Next, glyceryl stearate, cetyl alcohol, and white petrolatum were added to a suitable container and heated to 65-70° C. This heating step melts the surfactants and the petrolatum. Next, norketotifen solution was slowly added and the composition mixed until the solvent was dispersed. Finally, the composition was cooled with mixing to allow the ointment to thicken. If needed, acidity can be adjusted by adding an acid solution or a base solution to obtain the preferred acidity. If needed, viscosity can be adjusted with a viscosity-modifying agent to obtain the preferred viscosity.

Malassezia pachydermatis = experiment: Antimicrobial test; format: cell-based
From the text: as §1

Candida albicans = experiment: Antimicrobial test; format: cell-based
From the text: as §1

[7] = tested on: human leukocytes (buffy coat); experiment: Inhibition of A23187-stimulated histamine release from human leukocytes; format: cell-based
Procedure: In these studies, histamine was the marker compound for inflammatory mediators that are released from mast cells and other pro-inflammatory cells in patients with atopic inflammatory diseases. The inhibition of stimulated histamine release from human leukocytes (buffy coat) by test articles was studied. Leukocytes were obtained from healthy volunteers and histamine release was induced by incubation (20 min/37° C.) with the calcium ionophore A23187 (5 μM) in the presence or absence of a test article. Histamine was analyzed by enzyme-immune assays, using commercially available kits and a microplate reader (MRX, Dynatech). The test articles were evaluated, in duplicate, at five concentrations.

Helicobacter pylori = experiment: Antimicrobial test; format: cell-based
[8] = oral 20 mg/kg, vehicle 1% methylcellulose/water

With OCCOCCN1CCN(C(c2ccccc2)c2ccc(Cl)cc2)CC1 (stereo not drawn) [HYDROXYZINE] the Sedated animals (mice; oral 100 mg/kg) was 9/10.
In the case of CC(C)(C)c1ccc(C(O)CCCN2CCC(C(O)(c3ccccc3)c3ccccc3)CC2)cc1 (stereo not drawn) [TERFENADINE], the Sedated animals (mice; oral 150 mg/kg) is reported as 0/10.
In the case of Clc1ccc2c(c1)CCc1cccnc1C2=C1CCNCC1 [DESLORATADINE, reference compound], the “Bouts as % of Vehicle Controls” value ([1]; oral 20 mg/kg, 100% = 92 bouts) is reported as 122%, the “Bouts/40 min Mean ± SEM” value [1, 8] is reported as 112.0 ± 14.5 and the Sedated animals (mice; oral 150 mg/kg) is reported as 0/10.
With CN1CCC(=C2c3ccccc3CC(=O)c3sccc32)CC1 [Ketotifen, 4-(1-methyl-4-piperidyline)-4H-benzo(4,5)-cyclohepta-(1,2-b) thiophene-10-one] the Sedated animals (mice; oral 25 mg/kg) was 5/10, the Sedated animals (mice; oral 50 mg/kg) was 8/10 and the Sedated animals (mice; oral 100 mg/kg) was 10/10. For the same compound, the LD50 ([2]; intravenous) was 5 to 10 mg/kg and the LD50 ([2]; oral) was under 300 mg/kg.
With COc1ccc(CN(CCN(C)C)c2ccccn2)cc1 [PYRILAMINE] the Sedated animals (mice; oral 100 mg/kg) was 8/10.
With CN1CCN(C(=O)c2cc3cc(Cl)ccc3[nH]2)CC1 [J&J7777120, reference compound] the “Bouts/40 min Mean ± SEM” value ([1]; oral 20 mg/kg, vehicle 20% hydroxypropyl-β-cyclodextrin) was 63.6 ± 11.7 and the “Bouts as % of Vehicle Controls” value ([1]; oral 20 mg/kg, versus vehicle for JNJ7777120 (112 bouts)) was 57* %.
In the case of CN(C)CCOC(c1ccccc1)c1ccccc1 [DIPHENHYDRAMINE], the Sedated animals (mice; oral 50 mg/kg) is reported as 5/10 and the Sedated animals (mice; oral 100 mg/kg) is reported as 8/10.
In the case of CNS(=O)(=O)C[C@H]1CC[C@H](N(C)c2ncnc3[nH]ccc23)CC1 [Oclacitinib, reference compound], the “Bouts as % of Vehicle Controls” value ([1]; oral 20 mg/kg, 100% = 92 bouts) is reported as 55* % and the “Bouts/40 min Mean ± SEM” value [1, 8] is reported as 50.9 ± 18.7.
For O=C(O)/C=C/C(=O)O.O=C1Cc2ccccc2C(=C2CCNCC2)c2ccsc21 [R-norketotifen HF], the “S. aureus MIC” value (Staphylococcus aureus) was 1.0 mg/mL and the “M. globosa MIC” value (Malassezia globosa) was 0.5 mg/mL.
For O=C1Cc2ccccc2C(=C2CCNCC2)c2ccsc21 (racemic) [Norketotifen], the “Norketotifen formed in the liver” value [3] was “up to 0.5 mg”, the “Reduction of histamine-induced pruritus versus Vehicle Control” value [4] was 58% and the “Inhibition of croton oil inflammation” value [5] was “completely inhibited”. It also gave a Saline wheal area (histamine wheal response; oral 1.0 mg/kg) of 22 ± 1 mm^2, a Histamine wheal area (histamine wheal response; oral 10 mg/kg, 60 min before intradermal histamine) of 39 ± 2 mm^2 and a Saline wheal area (histamine wheal response; oral 10 mg/kg) of 22 ± 1 mm^2. The Saline wheal area (histamine wheal response; oral 50 mg/kg) was 12 ± 1 mm^2, the “Bouts/40 min Mean ± SEM” value ([1]; oral 1 mg/kg) was 84.7 ± 11.6 and the “Bouts as % of Vehicle Controls” value ([1]; oral 1 mg/kg, 100% = 92 bouts) was 92%. For the same compound, the “Bouts/40 min Mean ± SEM” value ([1]; oral 3 mg/kg) was 34.1 ± 9.6, the “Bouts as % of Vehicle Controls” value ([1]; oral 3 mg/kg, 100% = 92 bouts) was 37** % and the “Bouts/40 min Mean ± SEM” value ([1]; oral 10 mg/kg) was 17.8 ± 3.1. The “Bouts as % of Vehicle Controls” value ([1]; oral 10 mg/kg, 100% = 92 bouts) was 19** %, the “Bouts/40 min Mean ± SEM” value ([1]; oral 100 mg/kg) was 8.3 ± 2.8 and the “Bouts as % of Vehicle Controls” value ([1]; oral 100 mg/kg, 100% = 92 bouts) was 9*** %. The “Inhibition of histamine-induced pruritus” value ([1]; oral supramaximal dose 100 mg/kg) was “complete inhibition”, the Solubility ([6]; formulation G1009, mixture of two polyethylene glycols) was “about 1.0%” and the Solubility ([6]; in propylene glycol) was “about 1.0%”. For the same compound, the “Antimicrobial activity” value (Malassezia pachydermatis) was “potent antimicrobial activities”, the “Antimicrobial activity” value (Candida albicans) was “potent antimicrobial activities” and the “Potency as inhibitor of histamine release relative to ketotifen” value [7] was “approximately 10 times”. The Sedated animals (mice; oral 83 mg/kg) was 3/10, the Sedated animals (mice; oral 100 mg/kg) was 3/10 and the Sedated animals (mice; oral 150 mg/kg) was 3/10. The Sedated animals (mice; oral 180 mg/kg) was 6/10, the “Sedative activity in mice” value (mice; mouse, in vivo) was “expressed sedative activity” and the LD50 ([2]; intravenous) was 10 to 15 mg/kg. For the same compound, the LD50 ([2]; oral) was 1500 to 2000 mg/kg and the “Antimicrobial activity” value (Helicobacter pylori) was “potent antimicrobial activities”.
In the case of O=C1Cc2ccccc2C(=C2CCNCC2)c2ccsc21 [R-NORKETOTIFEN], the Sedated animals (mice; oral 100 mg/kg, 100 mg/kg) is reported as 3/10 and the Sedated animals (mice; oral 150 mg/kg, 150 mg/kg) is reported as 3/10.
In the case of O=C(O)/C=C/C(=O)O.O=C1Cc2ccccc2C(=C2CCNCC2)c2ccsc21 [RS-norketotifen HF], the “S. aureus MIC” value (Staphylococcus aureus) is reported as 0.5 mg/mL and the “M. globosa MIC” value (Malassezia globosa) is reported as 0.25 mg/mL.
For CCOC(=O)N1CCC(=C2c3ccc(Cl)cc3CCc3cccnc32)CC1 [LORATADINE], the Sedated animals (mice; oral 150 mg/kg) was 1/10.
For O=C(O)/C=C/C(=O)O.O=C1Cc2ccccc2C(=C2CCNCC2)c2ccsc21 [S-norketotifen HF], the “S. aureus MIC” value (Staphylococcus aureus) was 0.5 mg/mL and the “M. globosa MIC” value (Malassezia globosa) was 0.25 mg/mL.
For O=C1Cc2ccccc2C(=C2CCNCC2)c2ccsc21 [S-NORKETOTIFEN], the Sedated animals (mice; oral 100 mg/kg, 100 mg/kg) was 0/10 and the Sedated animals (mice; oral 150 mg/kg, 150 mg/kg) was 0/10.
